The source of these data is patent publication US20230286973A1, “PROTEIN SECRETION INHIBITORS” (KEZAR LIFE SCIENCES, priority 2020, published 2023).

The nature of data set [1]: Liver Microsome Stability Assay (rat). As to conditions: rat liver microsomes, with NADPH, 1.0 uM compound.
Description: (§1) Stability of a compound was assessed in the presence of liver microsomes from various sources—mouse, rat, monkey and human liver microsomes. 1.0 uM compound, 0.4% DMSO in 0.1 M Potassium Phosphate with 1.0 mg/mL liver microsomes, were incubated at 37° C. with or without 1 mM NADPH. The samples were quenched at 0, and 30 minutes.
Data set [2] is described as follows: Liver Microsome Stability Assay (monkey). As to conditions: monkey liver microsomes, with NADPH, 1.0 uM compound.
Description: as §1
For data set [3], the system named is PD1-ss+10aa/Gaussia Luciferase. Briefly: Dox-Induced PD1-ss-Gluc Assay. It counts as cell-based. As to conditions: 24 hr Dox induction, 293FRT/TO cells, read-out: 24 hr Dox Inducible PD1ssGluc 293FRT/TO: Mean IC50. An outline of the steps:
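Flp-In 293 T-REx cells stably carrying a doxycycline-inducible Gaussia luciferase fused to the PD1 signal sequence plus 10 aa were plated the day before. Compound dilutions in DMSO/media containing doxycycline were then added and incubated at 37 °C, 5% CO2. Data for undefined stereochemistry refer to stereoisomer mixtures.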

Data set [4] can be described thus: Liver Microsome Stability Assay (human). As to conditions: human liver microsomes, with NADPH, 1.0 uM compound.
Description: as §1
Data set [5] concerns HER3-ss+4aa/Gaussia Luciferase. Briefly: Dox-Induced Her3-ss-Gluc Assay. As to conditions: 24 hr Dox induction, 293FRT/TO cells, read-out: 24 hr Dox Inducible Her3(ss + 4)Gluc 293FRT/TO: Mean IC50. It counts as cell-based. An outline of the steps:
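Doxycycline-inducible HER3 signal sequence+4aa/Gaussia luciferase construct, stably integrated in Flp-In 293 T-REx cells; compound dilutions applied with doxycycline at 37° C., 5% CO2.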

In data set [6] the test system is multiple myeloma cell line NCI-H929. Briefly: H929 Cell Viability Assay. It counts as cell-based, human. As to conditions: Homo sapiens, NCI-H929, 48 h, NCI-H929 cells, Celltiter-Glo. An outline of the steps: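 A 48-hour compound treatment of cells in 10% FBS RPMI medium was followed by luciferase-based viability quantification.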
The test system of data set [7] is IL-2-FL/Gaussia Luciferase. Briefly: Dox Induced IL2-FL-Gluc Assay. As to conditions: for IC50: 24 hr Dox induction, 293FRT/TO cells, read-out: 24 hr Dox Inducible IL2FLGluc 293FRT/TO: Mean IC50; for 24 hr Dox Inducible IL2FLGluc 293FRT/TO: IL2/PD1: ratio of IL2FLGluc IC50 to PD1ssGluc IC50. It counts as cell-based. An outline of the steps:
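A hygromycin- and blasticidin-resistant 293 T-REx clone carrying inducible IL-2–Gaussia luciferase (full-length IL-2, residues 1-153) serves as the cell system. After overnight plating, the cells get test compounds together with doxycycline in DMSO/media and are incubated at 37° C, 5% CO2.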

In data set [8] the test system is multiple myeloma cell line U266B1. In words: U266 Cell Viability Assay. It counts as cell-based, human. As to conditions: Homo sapiens, U-266, 48 h, U266B1 cells, Celltiter-Glo. An outline of the steps:
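After growth in serum-supplemented RPMI 1640, cells received serially diluted compound in DMSO/media and were kept 48 hours before a CellTiter-Glo luminescence readout.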
A general note: Cellular ATP, detected with luciferase, serves as a proxy for viable cell number.

For data set [9], the system named is TNFα-FL/Gaussia Luciferase. Briefly: Dox Induced TNFα-FL-Gluc Assay. Format: cell-based. As to conditions: for IC50: 24 hr Dox induction, 293FRT/TO cells, read-out: 24 hr Dox Inducible TNFaFLGluc 293FRT/TO: Mean IC50; for 24 hr Dox Inducible TNFaFLGluc 293FRT/TO: TNF/PD1: ratio of TNFaFLGluc IC50 to PD1ssGluc IC50. An outline of the steps: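 Hygromycin/blasticidin-selected Flp-In 293 T-REx cells, TNFα-FL/Gaussia luciferase fusion under T-REx control; overnight plating, then compound in DMSO/media with doxycycline at 37 °C, 5% CO2; stereo-undefined structures tested as mixtures.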

Data set [10] can be described thus: Liver Microsome Stability Assay (mouse). As to conditions: mouse liver microsomes, with NADPH, 1.0 uM compound. (In general: Liver microsomes are vesicles of endoplasmic reticulum, rich in cytochrome P450 enzymes.)
Description: as §1
The mark [11] stands for this setting: '<=>' given where both are I.A.

Where two headings read alike, the source gives them in different places.

Take `O=C(Nc1nc([C@H]2CCCN2c2ccc(OC3CCNC3)cc2)cs1)c1cccn1Cc1ccnc(F)c1` (stereo partly drawn) [Compound A80, 1-((2-fluoropyridin-4-yl)methyl)-N-(4-((2R)-1-(4-(pyrrolidin-3-yloxy)phenyl)pyrrolidin-2-yl)thiazol-2-yl)-1H-pyrrole-2-carboxamide]: the “Liver Microsome Stability (Multiple Species): Rat - % Remaining after 30 min w/NADPH” value in data set [1] came to 88.1%. Besides, in data set [2], the “Liver Microsome Stability (Multiple Species): Monkey - % Remaining after 30 min w/NADPH” value is on record as 17.6%. For the same molecule, the IC50 is 0.595 µM in data set [3], 1.07 µM in data set [5], 1.84 µM in [7] and 11.4 µM in data set [9]. In data set [4], the “Liver Microsome Stability (Multiple Species): Human - % Remaining after 30 min w/NADPH” value was found to be 51%. Also, the figures for the EC50 in data set [6] and in data set [8] were 5.73 µM and 7.78 µM, respectively. For the same molecule, the “24 hr Dox Inducible IL2FLGluc 293FRT/TO: IL2/PD1” value in [7] is recorded as 3.1. In data set [9], the “24 hr Dox Inducible TNFaFLGluc 293FRT/TO: TNF/PD1” value is listed as 19.1. The “Liver Microsome Stability (Multiple Species): Mouse - % Remaining after 30 min w/NADPH” value in data set [10] turned out to be 71.9%.
With `Cc1cc(Cn2cccc2C(=O)Nc2nc([C@H]3CCCN3c3ccccc3)cs2)ccn1` [Compound A52, (R)-1-((2-methylpyridin-4-yl)methyl)-N-(4-(1-phenylpyrrolidin-2-yl)thiazol-2-yl)-1H-pyrrole-2-carboxamide], in [1], the “Liver Microsome Stability (Multiple Species): Rat - % Remaining after 30 min w/NADPH” value came out at 0.63%. Further, the “Liver Microsome Stability (Multiple Species): Monkey - % Remaining after 30 min w/NADPH” value in [2] was found to be 0.33%. In addition, the IC50 in data set [3] stood at 0.34 µM; in data set [5] it was 0.45 µM; in data set [7], 0.912 µM; in data set [9] it was 4.05 µM. Moreover, in [4], the “Liver Microsome Stability (Multiple Species): Human - % Remaining after 30 min w/NADPH” value stood at 1.11%. Further, the EC50 (in general, the midpoint of the concentration-response curve) in [6] was 20.6 µM; in data set [8], greater than 25 µM. For the same molecule, the “24 hr Dox Inducible IL2FLGluc 293FRT/TO: IL2/PD1” value in [7] is reported as 2.7. Further, the “24 hr Dox Inducible TNFaFLGluc 293FRT/TO: TNF/PD1” value in data set [9] amounted to 11.9. Besides, in data set [10], the “Liver Microsome Stability (Multiple Species): Mouse - % Remaining after 30 min w/NADPH” value is recorded as 3.47%.
In the case of `CC(C)c1ccc(/C=C/c2csc(NC(=O)c3cccn3Cc3cccnc3)n2)nc1` [Compound B66, (E)-N-(4-(2-(5-isopropylpyridin-2-yl)vinyl)thiazol-2-yl)-1-(pyridin-3-ylmethyl)-1H-pyrrole-2-carboxamide], in data set [1], the “Liver Microsome Stability (Multiple Species): Rat - % Remaining after 30 min w/NADPH” value is given as 0.18%. Also, in [2], the “Liver Microsome Stability (Multiple Species): Monkey - % Remaining after 30 min w/NADPH” value worked out at 0.35%. The IC50 was 15.5 µM in data set [3], greater than 25 µM in data set [5], greater than 25 µM in data set [7] and greater than 25 µM in data set [9]. In addition, the “Liver Microsome Stability (Multiple Species): Human - % Remaining after 30 min w/NADPH” value in [4] was determined as 0.09%. The EC50 is 13.4 µM in data set [6] and greater than 25 µM in data set [8]. Also, the “24 hr Dox Inducible IL2FLGluc 293FRT/TO: IL2/PD1” value in [7] was greater than 1.6. For the same molecule, in data set [9], the “24 hr Dox Inducible TNFaFLGluc 293FRT/TO: TNF/PD1” value is reported as greater than 1.61. The “Liver Microsome Stability (Multiple Species): Mouse - % Remaining after 30 min w/NADPH” value in data set [10] is 0.11%.
With `CC(=O)N1CCC(Oc2ccc(N3CCC[C@@H]3c3csc(NC(=O)c4cccn4CC4CCOCC4)n3)cc2)CC1` [Compound C103, (R)-N-(4-(1-(4-((1-acetylpiperidin-4-yl)oxy)phenyl)pyrrolidin-2-yl)thiazol-2-yl)-1-((tetrahydro-2H-pyran-4-yl)methyl)-1H-pyrrole-2-carboxamide], the “Liver Microsome Stability (Multiple Species): Rat - % Remaining after 30 min w/NADPH” value in data set [1] stood at 30%. For the same molecule, the “Liver Microsome Stability (Multiple Species): Monkey - % Remaining after 30 min w/NADPH” value in [2] was 12.9%. The IC50 in [3] (mean) is 0.665 µM; in data set [5] (mean), 1.34 µM; in [7] (mean) it was 1.16 µM; in data set [9] (mean), 4.99 µM. Besides, in data set [4], the “Liver Microsome Stability (Multiple Species): Human - % Remaining after 30 min w/NADPH” value turned out to be 34.8%. Also, the EC50 in data set [6] is 14 µM; in data set [8], greater than 25 µM. The “24 hr Dox Inducible IL2FLGluc 293FRT/TO: IL2/PD1” value in data set [7] (setting [11]) is recorded as 1.7. In data set [9] (setting [11]), the “24 hr Dox Inducible TNFaFLGluc 293FRT/TO: TNF/PD1” value is reported as 7.5. The “Liver Microsome Stability (Multiple Species): Mouse - % Remaining after 30 min w/NADPH” value in data set [10] is given as 54.8%.
Take `CC(=O)N1CCC(Oc2ccc(N3CCC[C@@H]3c3csc(NC(=O)c4cccn4Cc4ccnc(F)c4)n3)cn2)CC1` [Compound A155, (R)-N-(4-(1-(6-((1-acetylpiperidin-4-yl)oxy)pyridin-3-yl)pyrrolidin-2-yl)thiazol-2-yl)-1-((2-fluoropyridin-4-yl)methyl)-1H-pyrrole-2-carboxamide]: the “Liver Microsome Stability (Multiple Species): Rat - % Remaining after 30 min w/NADPH” value in [1] is 8.23%. The “Liver Microsome Stability (Multiple Species): Monkey - % Remaining after 30 min w/NADPH” value in data set [2] is reported as 0.17%. Also, the IC50 was 0.08 µM in data set [3], 0.0866 µM in data set [5], 0.189 µM in [7] and 1.34 µM in data set [9]. Further, the “Liver Microsome Stability (Multiple Species): Human - % Remaining after 30 min w/NADPH” value in [4] is 1.07%. The 50% effective concentration (EC50) in [6] was 2.86 µM; in data set [8], greater than 25 µM. Further, the “24 hr Dox Inducible IL2FLGluc 293FRT/TO: IL2/PD1” value in data set [7] was found to be 2.4. The “24 hr Dox Inducible TNFaFLGluc 293FRT/TO: TNF/PD1” value in data set [9] is given as 16.8. In addition, the “Liver Microsome Stability (Multiple Species): Mouse - % Remaining after 30 min w/NADPH” value in data set [10] is recorded as 16.9%.
On to `CC(=O)N(C)C/C=C/c1csc(NC(=O)c2cccn2Cc2ccncc2)n1` [Compound E15, (E)-N-(4-(3-(N-methylacetamido)prop-1-en-1-yl)thiazol-2-yl)-1-(pyridin-4-ylmethyl)-1H-pyrrole-2-carboxamide], for which the “Liver Microsome Stability (Multiple Species): Rat - % Remaining after 30 min w/NADPH” value in data set [1] turned out to be 0.53%. The “Liver Microsome Stability (Multiple Species): Monkey - % Remaining after 30 min w/NADPH” value in data set [2] worked out at 0.11%. Besides, the IC50 in data set [3] (mean), in data set [5] (mean), in data set [7] (mean) and in data set [9] (mean) was greater than 25 µM each time. Further, the “Liver Microsome Stability (Multiple Species): Human - % Remaining after 30 min w/NADPH” value in data set [4] was 0.91%. Moreover, the 50% effective concentration (EC50) in data set [6] and in [8] was greater than 25 µM in each case. Also, the “24 hr Dox Inducible IL2FLGluc 293FRT/TO: IL2/PD1” value in data set [7] (setting [11]) is 1. Also, the “Liver Microsome Stability (Multiple Species): Mouse - % Remaining after 30 min w/NADPH” value in data set [10] is on record as 0.54%.
As for `CC(=O)N1CC(OC(=O)Nc2ccc(N3CCC[C@@H]3c3csc(NC(=O)c4cccn4Cc4ccnc(F)c4)n3)cc2)C1` [Compound A179, 1-acetylazetidin-3-yl (R)-(4-(2-(2-(1-((2-fluoropyridin-4-yl)methyl)-1H-pyrrole-2-carboxamido)thiazol-4-yl)pyrrolidin-1-yl)phenyl)carbamate], in data set [1], the “Liver Microsome Stability (Multiple Species): Rat - % Remaining after 30 min w/NADPH” value turned out to be 69.3%. The “Liver Microsome Stability (Multiple Species): Monkey - % Remaining after 30 min w/NADPH” value in data set [2] is 15.4%. Besides, the IC50 was 0.00263 µM in data set [3], 0.00696 µM in [5], 0.00901 µM in [7] and 0.138 µM in data set [9]. Moreover, the “Liver Microsome Stability (Multiple Species): Human - % Remaining after 30 min w/NADPH” value in data set [4] came out at 21.3%. For the same molecule, the half-maximal effective concentration (EC50) in data set [6] is 0.0704 µM; in data set [8], greater than 25 µM. For the same molecule, in [7], the “24 hr Dox Inducible IL2FLGluc 293FRT/TO: IL2/PD1” value is 3.4. For the same molecule, in [9], the “24 hr Dox Inducible TNFaFLGluc 293FRT/TO: TNF/PD1” value is on record as 52.3. Besides, in data set [10], the “Liver Microsome Stability (Multiple Species): Mouse - % Remaining after 30 min w/NADPH” value is 34.8%.
